From PMC12534982 (Journal of Experimental & Clinical Cancer Research : CR, 2025)

How the values were obtained:
human DHODH = conditions: cited from earlier work
Δ29 DHODH (N-truncated) = biological target: T1, Δ29 DHODH (N-truncated) (Homo sapiens, UniProt Q02127); assay: In vitro DHODH enzyme activity assay; type: biochemical; conditions: 1 mM DHO; ± SD
T1 construct: N-terminal truncated form of human DHODH (Δ29), where the N-terminal transmembrane domain was removed; made in house
Description: The assays to determine the inhibition constants of inhibitors of the recombinant DHODH enzymes are described in [28, 29].
The IC50 values were determined by fitting the equation V = V max/(1 + (I/IC50)^h) to the assay data using SigmaPlot14 (Systat Software Inc.). In this equation, V represents the measured enzyme activity, while V max indicates the maximum enzyme activity reached. I denotes the inhibitor concentration, and h describes the slope of the fitted curve.

colorectal cancer cells [1] = assay: Western blot; type: cell-based, human; conditions: NK-A 17E-233I 25 µM; Brequinar
Description: Cancer cells (2.2 × 10^6) were cultured in 100-mm Petri dishes and treated with DMSO or NK-A 17E-233I (25 µM) for 48 h. Cells were harvested by scrapping into 2 × Laemmli buffer (4% SDS, 20% glycerol, 125 mM Tris–HCl, pH 6.8) and heated at 100 °C for 5 min. A 4 × Laemmli sample buffer containing β-mercaptoethanol was added to the cell lysates. The proteins were separated using sodium dodecyl sulfate polyacrylamide gel electrophoresis (SDS-PAGE) and subsequently transferred to polyvinylidene fluoride (PVDF) membranes (#88518; Thermo Fisher Scientific) following the manufacturer’s protocols. The membranes were blocked at room temperature for 1 h with 5% dried skimmed milk in Tris-buffered saline with Tween-20 (TBS-T) (20 mM Tris–HCl, pH 7.5, 150 mM NaCl, 0.1% Tween-20), and the blots were incubated with the corresponding antibodies at a dilution of 1:1000–1:3000 in a blocking buffer at 4 °C overnight.
Primary antibodies utilized in this study included: anti-human DHODH (#SC-166348; Santa Cruz), anti–CHK1-pS345 (#2348; Cell Signaling), anti-POLD2 (#29765–1-AP; Proteintech), anti-POLD1 (#15646–1-AP; Proteintech), anti-p53 (#SC-126; Santa Cruz), anti-KRAS, clone 4F3 (#SAB1404011; Sigma-Aldrich), anti-GAPDH (#ab9489; Abcam), anti–α-tubulin (#T9026; Sigma-Aldrich), anti-BAX (#SC-23959; Santa Cruz), anti-cytochrome c (#66264–1-IG; Proteintech), anti-DR5 (#3696; Cell Signaling, dilution 1:500), anti–caspase-8 (#SC-56070; Santa Cruz), and anti–caspase-3 (#9662; Cell Signaling, dilution 1:500). The membranes were incubated at room temperature for 1 h with secondary antibodies (diluted 1:3000–5000), either anti-rabbit (#A0545; Sigma-Aldrich) or anti-mouse IgG-horseradish peroxidase-conjugated (#A9044; Sigma-Aldrich), in TBS-T. The images were analyzed and quantified using ImageStudio software (LI-COR) or ImageQuant 10.2 TL analysis software (Cytiva Life Sciences).

SW620 cells [2] = assay: Mitochondrial respiration (OCR) in intact cells; type: cell-based, human; conditions: 24 h
Description: Oxygen consumption rate (OCR) was measured using a high-resolution respirometer (Oxygraph-2k, Oroboros Instruments, Innsbruck, Austria). SW620 cells (2.2 × 10^6) were cultured in 100-mm Petri dishes and treated with DMSO or NK-A 17E-233I (25 µM) for 24 h. Cells were harvested at 80% confluency using 0.25% trypsin/EDTA and resuspended in complete DMEM at a concentration of 5 × 10^5 cells/mL. The cells were subsequently analyzed in two 2 mL Oxygraph chambers. Real-time measurements of OCR were conducted at 37 °C under basal conditions and following the sequential addition of inhibitors targeting various mitochondrial respiratory complexes: oligomycin (2.5 μM) to inhibit complex V (to assess ATP-linked respiration and leak rate), carbonyl cyanide-p-trifluoromethoxyphenylhydrazone (FCCP) with stepwise titration in 0.5 μM increments (to evaluate maximal electron transport system respiratory capacity and reserve capacity), and rotenone (0.5 μM) and antimycin A (2.5 μM) to inhibit complex I and complex III, respectively (to measure non-mitochondrial oxygen consumption). The values of OCR were normalized to mitochondrial DNA copy number, which was quantified by qPCR using the primers referenced above. Data analysis was performed using DatLab7 (Oroboros, Austria) software.

SW620 cells [3] = assay: Complex I- and complex II-dependent respiration (permeabilized cells); type: cell-based, human; conditions: 100 µM, 24 h
Description: Following treatment, cells were detached using trypsin–EDTA, washed with PBS, and resuspended in MiR05 media (composed of 110 mM sucrose, 60 mM potassium-lactobionate, 0.5 mM EGTA, 3 mM MgCl2·6H2O, 20 mM taurine, 10 mM KH2PO4, 20 mM HEPES adjusted to pH 7.1 with KOH at 37 °C, and 1 g/L BSA) at a concentration of 5 × 10^5 cells/mL. The cells were then transferred into 2 mL Oxygraph chambers for real-time measurement of OCR. Initial permeabilization was achieved using 7 μg of digitonin, followed by the sequential addition of substrates and inhibitors: 5 mM ADP, 2 mM malate, 10 μM cytochrome c, 5 mM pyruvate, 10 mM glutamate, 10 mM succinate, 0.5 μM rotenone, and 2.5 μM antimycin A. Mitochondrial membrane integrity was confirmed through the addition of cytochrome c (10 μM), with observed changes in OCR remaining below 10%. Complex I-mediated respiration was evaluated following the addition of complex I substrates (malate/pyruvate/glutamate), while complex II-mediated respiration was assessed in the presence of the complex II substrate (succinate) and the complex I inhibitor (rotenone). Residual oxygen consumption after the addition of antimycin A was subtracted from all the results to yield mitochondria-specific rates. […] Oxygen consumption rates were expressed as picomoles (pmol) per second per million cells (Mill) and normalized to the mitochondrial copy number in each sample.

SW620 cells [4] = assay: DHODH-dependent respiration (permeabilized cells); type: cell-based, human; conditions: 24 h; NK-A 17E-233I 25 µM, Brequinar 100 µM; excess exogenous DHO
Description: Cells were resuspended in MiR05 medium and transferred into the chambers of the Oxygraph-2k instruments. The OCR in digitonin-permeabilized cells was monitored in the presence of the complex I inhibitor (0.5 μM rotenone), 1 mM DHO, 3 mM ADP, 10 μM cytochrome c, and 30 μM Leflunomide. DHODH-mediated respiration was calculated by subtracting the residual respiration rate after the addition of 30 μM Leflunomide from the respiration rate measured in the presence of 0.5 μM rotenone, 1 mM DHO, 3 mM ADP, and 10 μM cytochrome c.

SW620 cells [5] = conditions: 96 h
DHODH = test system: DHODH; parameters: method as in PMID 35184687; conditions: 100 µM; same experimental setup; cited from earlier work
colorectal cancer cells [6] = assay: Flow cytometry-based cell cycle analysis; parameters: species or system human; conditions: washout 12 h; NK-A 17E-233I 25 µM, HU 1 mM
Description: Cancer cells (3 × 10^4) were cultured in 48-well plates and treated with DMSO or NK-A 17E-233I (25 µM) for 24 h. Following treatment, all wells were washed with PBS (#P4417; Sigma-Aldrich), and the cells were collected in Eppendorf tubes. The cells were harvested using 0.25% trypsin (#25200056; ThermoScientific) and 0.02% EDTA (1:1) (#17892; ThermoFisher Scientific) for 2 min, followed by the addition of DMEM. The tubes were then centrifuged at 500 × g for 5 min. The supernatant was discarded, and the pellets were fixed in 70% cold ethanol and stored at -20 °C for at least 1 h. The pellets were resuspended in 1 mL PBS and centrifuged at 500 × g at 4 °C for 5 min. The supernatant was discarded once again, and the pellets were subsequently reconstituted in a solution containing propidium iodide (PI; #25,535–16-4, Merck) and RNase (#N8080119, Applied Biosystems), followed by storage at 4 °C overnight. Cell cycle analysis was conducted using a CytoFLEX flow cytometer (Beckman Coulter; 405 nm laser). Cells were gated based on size and granularity on a forward scatter (FSC)/side scatter (SSC) plot, with cell debris excluded from the analysis. Mean fluorescence intensity from 1 × 10^4 cells was recorded. Data analysis was conducted using FlowJo software v10.8.1 (BD Life Sciences).

T1 sequence (Q02127 29-395, stated change not applied): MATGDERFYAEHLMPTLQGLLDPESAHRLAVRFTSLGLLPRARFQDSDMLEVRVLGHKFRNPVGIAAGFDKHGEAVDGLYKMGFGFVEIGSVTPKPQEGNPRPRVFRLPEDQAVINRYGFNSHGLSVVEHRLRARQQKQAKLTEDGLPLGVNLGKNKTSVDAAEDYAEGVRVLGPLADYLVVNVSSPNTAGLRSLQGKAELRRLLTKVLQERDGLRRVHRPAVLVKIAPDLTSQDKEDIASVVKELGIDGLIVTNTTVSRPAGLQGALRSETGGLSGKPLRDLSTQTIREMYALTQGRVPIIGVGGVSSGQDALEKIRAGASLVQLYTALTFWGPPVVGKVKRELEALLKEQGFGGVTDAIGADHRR

## O=C1C(O)=C([C@H]2CC[C@H](c3ccc(Cl)cc3)CC2)C(=O)c2ccccc21 [Atovaquone]
Human DHODH
  mode of inhibition with respect to DHO: uncompetitive inhibitors

## Cc1c(-c2ccc(-c3ccccc3F)cc2)nc2ccc(F)cc2c1C(=O)O [Brequinar, reference compound]
Δ29 DHODH (N-truncated)
  average of the fitted slopes: 1.1 ± 0.2
Colorectal cancer cells [1]
  levels of p53-mutant protein: did not have an observed effect
SW620 cells [2]; 100 µM
  parameters of mitochondrial respiration in intact cells: decreased most of these respiration parameters
SW620 cells [2]; NK-A 17E-233I 25 µM, Brequinar 100 µM
  basal and ATP-linked respiration in intact cells: significantly decreased
SW620 cells [3]
  complex II-mediated respiration: stimulated
SW620 cells [4]
  DHODH-mediated oxygen consumption rate: reduced
SW620 cells [5]
  IC50: 100 µM

## O=C1CC(C(=O)O)NC(=O)N1 (stereo not drawn) [DHO, dihydroorotate]
DHODH
  ΔTm: 3.5 °C

## NC(=O)NO [HU, hydroxyurea, reference compound]
Colorectal cancer cells [6]
  cell cycle after washout: resumed proliferation

## C/C(O)=C(\C#N)C(=O)Nc1ccc(C(F)(F)F)cc1 [Teriflunomide]
Human DHODH
  mode of inhibition with respect to DHO: uncompetitive inhibitors

## O=C(O)c1cc(=O)[nH]c(=O)[nH]1 [orotate]
Human DHODH; competitive inhibitor concerning DHO
  Ki: 11 µM
